Test results published in patent US20250145665A1, “MACROCYCLIC PEPTIDES USEFUL AS MODULATORS OF TNF ALPHA” (Bristol-Myers Squibb Company, priority 2023, published 2025).
Starred links: 1 amine or outer side, 2 acyl side, 3 side chain; linkers in the order of their positions; H or OH if unused. Positions of bridges follow the written chain, without caps; N, C: chain ends. Non-standard residues stand in square brackets, D forms with d. Residues, ends and D or L forms follow the SMILES beside them. *: point of attachment. Bip(4'-NHCO-C6H4-4-CH2COOH) = N[C@@H](Cc1ccc(-c2ccc(NC(=O)c3ccc(CC(=O)O)cc3)cc2)cc1)C(=O)O; X39 = Cn1nc(C(=O)NCc2ccc(-c3ccc(C[C@H](N[*:1])C(=O)[*:2])cc3)cc2)c2ccccc21; X65 = O=C(O)Cc1cccc(NC(=O)c2ccc(-c3ccc(C[C@H](N[*:1])C(=O)[*:2])cc3)cc2)c1; X5 = Cn1nc(C(=O)Nc2ccc(-c3ccc(C[C@H](N[*:1])C(=O)[*:2])cc3)cc2)c2ccccc21; Bip(4'-NH) = O=C([C@H](Cc1ccc(-c2ccc(N[*:3])cc2)cc1)N[*:1])[*:2]; dArg(ω-(3-HO-benzyl)) = N=C(NCCC[C@@H](N)C(=O)O)NCc1cccc(O)c1; dArg(ω-Bn(3-CH2OH)) = N=C(NCCC[C@@H](N)C(=O)O)NCc1cccc(CO)c1; Indazole3carbonyl(1-CH2COOH) = O=C(O)Cn1nc(C(=O)*)c2ccccc21; X54 = N=C(NCCC[C@@H](N[*:1])C(=O)[*:2])NCc1cccc(-n2ccnc2)c1; Bip(4'-COOH) = N[C@@H](Cc1ccc(-c2ccc(C(=O)O)cc2)cc1)C(=O)O; Bip(4'-NHAc) = CC(=O)Nc1ccc(-c2ccc(C[C@H](N)C(=O)O)cc2)cc1; Ala(imidazol-2-yl) = N[C@@H](Cc1ncc[nH]1)C(=O)O; Ala(morpholin-4-yl) = N[C@@H](CN1CCOCC1)C(=O)O; Benzoyl(3-OCH2COOH) = O=C(O)COc1cccc(C(=O)*)c1; Phe(3-CONH2) = NC(=O)c1cccc(C[C@H](N)C(=O)O)c1; Bip = N[C@@H](Cc1ccc(-c2ccccc2)cc1)C(=O)O; X24 = O=C(O)COc1cc(-c2ccccc2)ccc1C(=O)*; Val(3-OH) = CC(C)(O)[C@H](N)C(=O)O; 2Pal = N[C@@H](Cc1ccccn1)C(=O)O; 2Thi = N[C@@H](Cc1cccs1)C(=O)O; Cha = N[C@@H](CC1CCCCC1)C(=O)O; Chg = N[C@H](C(=O)O)C1CCCCC1; Tle = CC(C)(C)[C@H](N)C(=O)O; Aze = O=C(O)[C@@H]1CCN1; Sar = CNCC(=O)O

Biological target: TNFα (Homo sapiens, UniProt P01375)
Assay: TNF-Induced HEK-Blue Assay
Assay type: cell-based
Details: not given

Sequence of TNFα (P01375 77-233 limits assumed): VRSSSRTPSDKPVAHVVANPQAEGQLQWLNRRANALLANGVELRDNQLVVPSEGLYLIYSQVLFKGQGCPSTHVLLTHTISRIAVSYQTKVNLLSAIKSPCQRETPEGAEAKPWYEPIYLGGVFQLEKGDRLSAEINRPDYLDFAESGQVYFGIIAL

| Compound | IC50 [nM] |
| --- | --- |
| CC[C@H](C)[C@@H]1NC(=O)[C@@H](CCCNC(=N)NCc2cccc(CO)c2)NC(=O)[C@H](CC(=O)O)NC(=O)[C@H](Cc2cnc[nH]2)NC(=O)CN(C)C(=O)[C@H](Cc2ccc(-c3ccc(NC(=O)c4nn(CC(=O)O)c5ccccc45)cc3)cc2)NC(=O)[C@H](Cc2ccc(-c3ccccc3)cc2)NC(=O)[C@H](CC2CCCCC2)NC(=O)CSC[C@@H](C(=O)NCC(N)=O)NC(=O)[C@H](CC(C)C)NC(=O)[C@H](Cc2cnc[nH]2)NC(=O)[C@H](C(C)C)NC(=O)[C@@H]2CCCN2C1=O [Example 477] ({CH2CO}-[Cha][Bip][Bip(4'-NH)](Indazole3carbonyl(1-CH2COOH))[Sar]HD[dArg(ω-Bn(3-CH2OH))]IPVHLCG-NH2; thioether N-13) | < 50 |

Same assay, conditions: HEK-Blue-CD40L cells, NF-kB-driven secreted alkaline phosphatase reporter; TNFα 0.5 ng/ml; 18 h; read-out: TNF induced HEK-Blue assay IC50 value

| Compound | IC50 [nM] |
| --- | --- |
| CC[C@H](C)[C@@H]1NC(=O)[C@@H](CCCNC(=N)N)NC(=O)[C@H](CC(=O)O)NC(=O)[C@H](Cc2cnc[nH]2)NC(=O)CN(C)C(=O)[C@H](Cc2ccc(-c3ccc(NC(=O)c4ccc(CC(=O)O)cc4)cc3)cc2)NC(=O)[C@H](Cc2ccc(-c3ccc(C(=O)O)cc3)cc2)NC(=O)[C@H](C(C)(C)C)NC(=O)CSC[C@@H](C(=O)NCC(N)=O)NC(=O)[C@H](CC(C)C)NC(=O)[C@H](Cc2cnc[nH]2)NC(=O)[C@H](C(C)C)NC(=O)[C@@H]2CCCN2C1=O [Example 486] ({CH2CO}-[Tle][Bip(4'-COOH)][Bip(4'-NHCO-C6H4-4-CH2COOH)][Sar]HD[dR]IPVHLCG-NH2; thioether N-13) | < 50 |
| CC[C@H](C)[C@@H]1NC(=O)[C@@H](CCCNC(=N)N)NC(=O)[C@H](CC(=O)O)NC(=O)[C@H](Cc2cnc[nH]2)NC(=O)CN(C)C(=O)[C@H](Cc2ccc(-c3ccc(NC(=O)c4ccc(-c5ccccc5)cc4OCC(=O)O)cc3)cc2)NC(=O)[C@H](Cc2ccc(-c3ccccc3)cc2)NC(=O)[C@H](CC2CCCCC2)NC(=O)CSC[C@@H](C(=O)NCC(N)=O)NC(=O)[C@H](CC(C)C)NC(=O)[C@H](Cc2cnc[nH]2)NC(=O)[C@H](C(C)C)NC(=O)[C@@H]2CCCN2C1=O [Example 330] ({CH2CO}-[Cha][Bip][Bip(4'-NH)](X24)[Sar]HD[dR]IPVHLCG-NH2; thioether N-13) | 50 to 200 |
| CC(C)C[C@@H]1NC(=O)[C@H](CCCNC(=N)N)NC(=O)[C@H](C(C)C)NC(=O)[C@@H]2CCCN2C(=O)[C@H](C(C)C)NC(=O)[C@@H](CCCNC(=N)NCc2cccc(-n3ccnc3)c2)NC(=O)[C@H](CC(=O)O)NC(=O)[C@@H]2CCCN2C(=O)CN(C)C(=O)[C@H](Cc2ccc(-c3ccc(NC(=O)c4nn(C)c5ccccc45)cc3)cc2)NC(=O)[C@H](Cc2ccc(-c3ccccc3)cc2)NC(=O)[C@H](CN2CCOCC2)NC(=O)CSC[C@@H](C(=O)NCC(N)=O)NC1=O [Example 474] ({CH2CO}-[Ala(morpholin-4-yl)][Bip][X5][Sar]PD[X54]VPVRLCG-NH2; thioether N-13) | 50 to 200 |
| CC(C)C[C@@H]1NC(=O)[C@H](Cc2ccc(O)cc2)NC(=O)[C@H](C)NC(=O)[C@@H]2CCCN2C(=O)[C@H](C(C)C)NC(=O)[C@@H](CCCNC(=N)N)NC(=O)[C@H](CC(=O)O)NC(=O)[C@H](Cc2ccc(O)cc2)NC(=O)CN(C)C(=O)[C@H](Cc2ccc(-c3ccccc3)cc2)NC(=O)[C@H](Cc2ccc(-c3ccccc3)cc2)NC(=O)[C@H](CN2CCOCC2)NC(=O)CSC[C@@H](C(=O)NCC(N)=O)NC1=O [Example 162] ({CH2CO}-[Ala(morpholin-4-yl)][Bip][Bip][Sar]YD[dR]VPAYLCG-NH2; thioether N-13) | 50 to 200 |
| CC(C)C[C@@H]1NC(=O)[C@H](Cc2cccs2)NC(=O)[C@H](C(C)C)NC(=O)[C@@H]2CCCN2C(=O)[C@H](C(C)C)NC(=O)[C@@H](CCCNC(=N)N)NC(=O)[C@H](CC(=O)O)NC(=O)[C@H](Cc2ccccn2)NC(=O)CN(C)C(=O)[C@H](Cc2ccc(-c3ccc(NC(=O)c4ccc(CC(=O)O)cc4)cc3)cc2)NC(=O)[C@H](Cc2ccc(-c3ccccc3)cc2)NC(=O)[C@H](CN2CCOCC2)NC(=O)CSC[C@@H](C(=O)NCC(N)=O)NC1=O [Example 607] ({CH2CO}-[Ala(morpholin-4-yl)][Bip][Bip(4'-NHCO-C6H4-4-CH2COOH)][Sar][2Pal]D[dR]VPV[2Thi]LCG-NH2; thioether N-13) | < 50 |
| CC(=O)Nc1ccc(-c2ccc(C[C@@H]3NC(=O)[C@H](Cc4ccc(-c5ccccc5)cc4)NC(=O)[C@H](CN4CCOCC4)NC(=O)CSC[C@@H](C(=O)NCC(N)=O)NC(=O)[C@H](CC(C)C)NC(=O)[C@H](Cc4ccccc4)NC(=O)[C@H](C4CCCCC4)NC(=O)[C@@H]4CCCN4C(=O)[C@H](C(C)C)NC(=O)[C@@H](CCCNC(=N)N)NC(=O)[C@H](CC(=O)O)NC(=O)[C@H](Cc4ccccn4)NC(=O)CN(C)C3=O)cc2)cc1 [Example 454] ({CH2CO}-[Ala(morpholin-4-yl)][Bip][Bip(4'-NHAc)][Sar][2Pal]D[dR]VP[Chg]FLCG-NH2; thioether N-13) | < 50 |
| CC[C@H](C)[C@@H]1NC(=O)[C@@H](CCCNC(=N)N)NC(=O)[C@H](CC(=O)O)NC(=O)[C@H](Cc2cnc[nH]2)NC(=O)CN(C)C(=O)[C@H](Cc2ccc(-c3ccc(C(=O)Nc4cccc(CC(=O)O)c4)cc3)cc2)NC(=O)[C@H](Cc2ccc(-c3ccc(C(=O)O)cc3)cc2)NC(=O)[C@H](Cc2cccc(C(N)=O)c2)NC(=O)CSC[C@@H](C(=O)NCC(N)=O)NC(=O)[C@H](CC(C)C)NC(=O)[C@H](Cc2cnc[nH]2)NC(=O)[C@H](C(C)C)NC(=O)[C@@H]2CCCN2C1=O [Example 634] ({CH2CO}-[Phe(3-CONH2)][Bip(4'-COOH)][X65][Sar]HD[dR]IPVHLCG-NH2; thioether N-13) | 50 to 200 |
| CC(C)C[C@@H]1NC(=O)[C@H](Cc2ncc[nH]2)NC(=O)[C@H](C(C)C)NC(=O)[C@@H]2CCCN2C(=O)[C@H](C(C)C)NC(=O)[C@@H](CCCNC(=N)NCc2cccc(O)c2)NC(=O)[C@H](CC(=O)O)NC(=O)[C@H](Cc2ccccn2)NC(=O)CN(C)C(=O)[C@H](Cc2ccc(-c3ccc(NC(=O)c4cccc(OCC(=O)O)c4)cc3)cc2)NC(=O)[C@H](Cc2ccc(-c3ccc(C(=O)O)cc3)cc2)NC(=O)[C@H](CC2CCCCC2)NC(=O)CSC[C@@H](C(=O)NCC(N)=O)NC1=O [Example 555] ({CH2CO}-[Cha][Bip(4'-COOH)][Bip(4'-NH)](Benzoyl(3-OCH2COOH))[Sar][2Pal]D[dArg(ω-(3-HO-benzyl))]VPV[Ala(imidazol-2-yl)]LCG-NH2; thioether N-13) | < 50 |
| CC(C)C[C@@H]1NC(=O)[C@H](Cc2ccc(O)cc2)NC(=O)[C@H](C(C)C)NC(=O)[C@@H]2CCCN2C(=O)[C@H](C(C)C)NC(=O)[C@H](CCCNC(=N)N)NC(=O)[C@H](CC(N)=O)NC(=O)[C@@H]2CCCN2C(=O)CN(C)C(=O)[C@H](Cc2ccc(-c3ccccc3)cc2)NC(=O)[C@H](Cc2ccc(-c3ccccc3)cc2)NC(=O)[C@H](CN2CCOCC2)NC(=O)CSC[C@@H](C(=O)NCC(N)=O)NC1=O [Example 133] ({CH2CO}-[Ala(morpholin-4-yl)][Bip][Bip][Sar]PNRVPVYLCG-NH2; thioether N-13) | 200 to 2000 |
| CC(=O)Nc1ccc(-c2ccc(C[C@@H]3NC(=O)[C@H](Cc4ccc(-c5ccccc5)cc4)NC(=O)[C@H](CN4CCOCC4)NC(=O)CSC[C@@H](C(=O)NCC(N)=O)NC(=O)[C@H](CC(C)C)NC(=O)[C@H](Cc4ccc(O)cc4)NC(=O)[C@H](C(C)C)NC(=O)[C@@H]4CCCN4C(=O)[C@H](C(C)C)NC(=O)[C@@H](CCCNC(=N)N)NC(=O)[C@H](CC(=O)O)NC(=O)[C@@H]4CCCN4C(=O)CN(C)C3=O)cc2)cc1 [Example 125] ({CH2CO}-[Ala(morpholin-4-yl)][Bip][Bip(4'-NHAc)][Sar]PD[dR]VPVYLCG-NH2; thioether N-13) | < 50 |
| CC(=O)Nc1ccc(-c2ccc(C[C@@H]3NC(=O)[C@H](Cc4ccc(-c5ccccc5)cc4)NC(=O)[C@H](C(C)(C)O)NC(=O)CSC[C@@H](C(=O)NCC(N)=O)NC(=O)[C@H](CC(C)C)NC(=O)[C@H](CCCNC(=N)N)NC(=O)[C@H](C(C)C)NC(=O)[C@@H]4CCCN4C(=O)[C@H](C(C)C)NC(=O)[C@H](CCCNC(=N)N)NC(=O)[C@H](CC(=O)O)NC(=O)[C@H](Cc4ccc(O)cc4)NC(=O)CN(C)C3=O)cc2)cc1 [Example 193] ({CH2CO}-[Val(3-OH)][Bip][Bip(4'-NHAc)][Sar]YDRVPVRLCG-NH2; thioether N-13) | 50 to 200 |
| CC(C)C[C@@H]1NC(=O)[C@H](CCCNC(=N)N)NC(=O)[C@H](Cc2ccccc2)NC(=O)[C@@H]2CCCN2C(=O)[C@H](C(C)C)NC(=O)[C@@H](CCCNC(=N)N)NC(=O)[C@H](CC(=O)O)NC(=O)[C@@H]2CCCN2C(=O)CN(C)C(=O)[C@H](Cc2ccc(-c3ccccc3)cc2)NC(=O)[C@H](Cc2ccc(-c3ccccc3)cc2)NC(=O)[C@H](CN2CCOCC2)NC(=O)CSC[C@@H](C(=O)NCC(N)=O)NC1=O [Example 104] ({CH2CO}-[Ala(morpholin-4-yl)][Bip][Bip][Sar]PD[dR]VPFRLCG-NH2; thioether N-13) | 200 to 2000 |
| CC[C@H](C)[C@@H]1NC(=O)[C@@H]2CCCN2C(=O)[C@H]([C@@H](C)CC)NC(=O)[C@@H](CCCNC(=N)N)NC(=O)[C@H](CC(=O)O)NC(=O)[C@H](Cc2ccccc2)NC(=O)CN(C)C(=O)[C@H](Cc2ccc(-c3ccc(CNC(=O)c4nn(C)c5ccccc45)cc3)cc2)NC(=O)[C@H](Cc2ccc(-c3ccccc3)cc2)NC(=O)[C@H](CC2CCCCC2)NC(=O)CSC[C@@H](C(=O)NCC(N)=O)NC(=O)[C@H](CC(C)C)NC(=O)[C@H](Cc2cnc[nH]2)NC1=O [Example 400] ({CH2CO}-[Cha][Bip][X39][Sar]FD[dR]IPIHLCG-NH2; thioether N-13) | 200 to 2000 |
| CC(C)C[C@@H]1NC(=O)[C@H](CCCNC(=N)N)NC(=O)[C@H](C(C)C)NC(=O)[C@@H]2CCN2C(=O)[C@H](C(C)C)NC(=O)[C@H](CCCNC(=N)N)NC(=O)[C@H](CC(=O)O)NC(=O)[C@@H]2CCCN2C(=O)CN(C)C(=O)[C@H](Cc2ccc(-c3ccccc3)cc2)NC(=O)[C@H](Cc2ccc(-c3ccccc3)cc2)NC(=O)[C@H](CN2CCOCC2)NC(=O)CSC[C@@H](C(=O)NCC(N)=O)NC1=O [Example 72] ({CH2CO}-[Ala(morpholin-4-yl)][Bip][Bip][Sar]PDRV[Aze]VRLCG-NH2; thioether N-13) | 50 to 200 |
